Experiments:
[1] = system: lysozyme's vasodilatory effect in canine carotid artery preparation; experiment: Lysozyme-induced vasodilation in canine carotid artery preparation (in-vitro)
Method: Lysozyme produces vasodilation by intrinsically generating hydrogen peroxide (H2O2) that leads to activation of signaling pathways resulting in these hemodynamic effects (7).
Ethyl gallate is added to food as an antioxidant. It is the ethyl ester of gallic acid. Though found naturally in a variety of plant sources including walnuts (8), ethyl gallate is produced from gallic acid and ethanol (9). […] It is of note that if a substance could not inhibit lysozyme's effect in-vitro, then it would be worthless to pursue an in-vivo study.

non-septic dog = experiment: Ethyl gallate infusion in non-septic dogs; assay type: in vivo
Excerpt: The effect of ethyl-gallate treatment on hemodynamics in the non-septic animal was different from that found in the septic animal. In this protocol, 5 grams of ethyl-gallate were given in a similar manner over the course of the 5 hr treatment-phase of the study.
We have thus far studied 5 dogs in septic shock in which ethyl gallate was infused. We have compared the results obtained in this group with those found in septic animals (n=5) in which this treatment was not given. In addition, in preliminary experiments, we have looked at the effect of ethyl gallate infusion on hemodynamics in non-septic animals (n=3). In a time control non-septic group in which placebo (normal saline solution) was given, we have studied one animal.
The purpose of this study was to determine whether ethyl-gallate could reverse the fall in MAP that occurs in this sepsis model. Ethyl gallate was infused after MAP pressure fell approximately 30 to 40% from the baseline value in which this decline in MAP was not responsive to volume infusion to return Pwp to the baseline value (septic shock condition). This approach would be consistent with that observed in the clinical situation in which vasopressors, such as norepinephrine would be given at this interval. In the two sepsis groups, the animals were allocated in randomized fashion in which one received ethyl-gallate and volume infusion, while in the other, volume infusion alone was given. In the two non-sepsis groups, one received ethyl-gallate while the other received placebo treatment. In the non-sepsis groups, only maintenance volume for anesthesia and for placebo drugs was given over the course of the experiment.

[2] = Hydrogen peroxide scavenging (Amplex Red assay, electrochemical techniques, glucosidase/glucose assay); assay type: biochemical; conditions: multiple methodologies
Excerpt: This generation appears to involve the mechanism described by Wentworth et al in which proteins can utilize water as a catalyst to generate H2O2 (12) Once formed by lysozyme, H2O2 then reacts with intrinsic catalase to form a species of catalase termed Compound I (2) Compound I then acts to generate cyclic-guanosine monophosphate which in turn causes vasodilation. […] These as well as other mechanisms may account for the efficacy of ethyl-gallate treatment in septic shock.

[3] = system: POX-induced vasodilation in carotid and superior mesenteric arterial preparations; experiment: Peroxacetic acid (POX)-induced vasodilation in carotid and superior mesenteric arterial preparations; set-up: species or system canine
Excerpt: POX is a hydroperoxide (slightly different from the molecule of hydrogen peroxide) that also may be released in septic shock by macrophages and inflammatory cells. […] However, the pathway by which POX caused vasodilation is much different than that caused by lysozyme. […] To some extent, therefore, the improvement in hemodynamics previously observed when ethyl-gallate was infused in our in-vivo study could have also been related to ethyl-gallate's inhibition of the POX pathway in addition to ethyl-gallate's inhibitory-effect on lysozyme mediated pathways.
The only similarity found between lysozyme and POX is that POX's mechanism of action is also independent of the endothelium and nitric oxide formation, since we could not prevent POX's vasodilatory effect by removal of the endothelium or by nitric oxide inhibition. In contrast to lysozyme, POX seems to cause vasodilation is by activation of an enzyme in the vascular tissue called prostaglandin H synthase (PHS). PHS has an important mechanism of action, in that after activation by hydroperoxides (such as POX), it can in turn activate the cyclooxygenase pathway leading to vasodilation.

[4] = system: lysozyme-induced myocardial depression; experiment: Lysozyme-induced myocardial depression, in-vitro experiments; conditions: previous in-vitro experiments
Excerpt: Usually, when one increases the blood pressure in septic shock, there is the potential for stroke-volume and cardiac out to fall, since the heart has to pump against a greater load. Particularly, in septic shock, cardiac function is depressed.

[5] = non-septic dogs, 5 grams over 5 hr
[6] = non-septic dogs, ethyl-gallate infusion

## CCOC(=O)c1cc(O)c(O)c(O)c1 [ethyl gallate]
[1]; canine carotid artery and superior mesenteric arterial preparations
  prevention of vasodilation caused by lysozyme: prevented
[1]; canine carotid artery preparation, in-vitro
  block of lysozyme's vasodilatory effect: blocked
non-septic dog; non-septic dog, after infusion, FIG. 7
  heart rate effect: slight tachycardia
non-septic dog; [5]
  SVR as compared with pre-treatment: decrease
  change in MAP: did not cause a change
non-septic dog; [6]
  CO: appeared to increase
  SV: appeared to increase
  SW: appeared to increase
[2]
  scavenging of hydrogen peroxide: can scavenge
[3]
  inhibition of vasodilation caused by POX: inhibited
[4]
  prevention of lysozyme-induced myocardial depression: prevents

— patent publication US20120277312A1, “Ethylgallate and Related Compounds as a Treatment for Sepsis and Septic Shock” (priority 2009, published 2012)
